Test system: SMART-CAR_MTH1-WT (Jurkat.2 cells)
Assay: HTFC Assay (HTFC DC50)
Type: cell-based, human
Settings: Jurkat.2 (SMART-CAR_MTH1-WT) cells, 4 hours at 37° C., FITC anti-HA staining, flow cytometry
Method: FITC anti-HA.11 epitope tag antibody (Biolegend #901507) FITC Mouse IgG1 k isotope control antibody (Biolegend #400108)
Dry dispense 10 nL/well of compound+90 […] into 96-well V-bottom plates: 4 compounds/plate in 11-point dose response in biological duplicates. Column 12 as DMSO controls.
• 1. Plate Jurkat.2 (SMART-CAR_MTH1-WT) cells with Combi on top of dry dispensed compound: 500,000 cells/mL, 100 uL/well • 2. Incubate for 4 hours at 37° C. • 3. Fixation, permeabilization, and staining: • a. Centrifuge at 1500 rpm for 7 minutes, remove supernatant. • b. Add 100 μl of Fixation/Permeabilization Solution, seal plates, vortex, pulse spin, and incubate at 4° C. for 30 minutes. • c. Centrifuge at 1500 rpm for 7 minutes, remove supernatant. • d. Dilute BD Perm/Wash Buffer to 1× with milliQ water. • e. Wash with 200 uL of BD Perm/Wash Buffer, seal plates, vortex. • f. Centrifuge at 1500 rpm for 7 minutes, remove supernatant. • g. Wash with 200 uL of BD Perm/Wash Buffer, seal plates, vortex. (Option to stop, store at 4° C. if needed) • h. Centrifuge at 1500 rpm for 7 minutes, remove supernatant. • i. Add 50 uL BD Perm/Wash Buffer containing 1:1000 of HA-FITC (Well A12:D12) or IgG-FITC (Well F12:H12) directly conjugated antibody, seal plates, vortex, pulse spin, and incubate at 4° C. for 1 hour. • j. Centrifuge at 1500 rpm for 7 minutes, remove supernatant. • k. Wash with 200 uL of BD Perm/Wash Buffer, seal plates, vortex. • 4. Centrifuge at 1500 rpm for 7 minutes, remove supernatant. • a. Resuspend in 200 ul of BD Perm/Wash Buffer. (Option to stop, store at 4° C. if needed)
• 1. Use analysis from template HTFC file. • 2. Export statistics by going to Tools>Group stats, save as a .csv file with the plate barcode as the name. • 3. Remove all columns from this file except for “Well”, “Sample ID”, “Date”, and “HA+.Mean.Y Mean for HA+ gated by P01.cells”. • 4. Create a New DB Analysis in Scinamic using the “HTFC-Cell Pharm” template. • 5. Load Incyte file “barcode”.csv. • 6. Load Echo file with the generated Echo report (P:\LabData\Echo\Project\SMARTCAR\Echo Report\Labcyte Echo Dose-Response) • 7. Edit Platemap.xlsx with the plate barcodes. • 8. Load Plate Map with this file. • 9. Cleanup compound Ids, mask control outliers, and assign curves.
Using the above assay the HTFC DC50 data was determined for the compounds in Table 2 below.
Example 6: HiBit and HTFC DC50 Data for Representative Compounds of the Present Invention

Row | Compound | DC50 [µM]
1 | CNC(=O)c1cnc2cc(OC)c(-c3cnc(C(=O)NCCCCn4cc(CNc5cccc6c5C(=O)N(C5CCC(=O)NC5=O)C6=O)nn4)cn3)cc2c1Nc1ccccc1 (centres unmarked) [Compound 380, 6-(5-((4-(4-(((2-(2,6-dioxopiperidin-3-yl)-1,3-dioxoisoindolin-4-yl)amino)methyl)-1H-1,2,3-triazol-1-yl)butyl)carbamoyl)pyrazin-2-yl)-7-methoxy-N-methyl-4-(phenylamino)quinoline-3-carboxamide] | < 0.1
2 | CNC(=O)c1cnc2ccc(NCCCCCCCCCCNC(=O)COc3cccc4c3C(=O)N(C3CCC(=O)NC3=O)C4=O)cc2c1NC1CC1 (centres unmarked) [Compound 460, 4-(cyclopropylamino)-6-((10-(2-((2-(2,6-dioxopiperidin-3-yl)-1,3-dioxoisoindolin-4-yl)oxy)acetamido)decyl)amino)-N-methylquinoline-3-carboxamide] | < 0.1
